# Assay results as given in US10745382B2 (BRISTOL-MYERS SQUIBB COMPANY, priority 2015, dated 2020).
# Target: T1, PD-1/PD-L1 (Homo sapiens, UniProt Q9NZQ7)
# T1 construct: made in house; host or cells: HEK293T
# Test: PD-1/PD-L1 Homogenous Time-Resolved Fluorescence (HTRF) binding assay
# Conditions: PD-L1-His 10 nM, PD-1-Ig 20 nM; value given as range class; read-out: Range or IC50
# How it was run: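 dPBS + 0.1% BSA + 0.05% Tween-20 buffer; Eu-cryptate anti-Ig 1 nM final, APC anti-His 20 nM final; HTRF read. Counter-assays: PD-1-Ig/PD-L2-His 20 & 5 nM, CD80-His/PD-L1-Ig 100 & 10 nM.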
# T1 sequence (Q9NZQ7 with tags, fused parts or gaps): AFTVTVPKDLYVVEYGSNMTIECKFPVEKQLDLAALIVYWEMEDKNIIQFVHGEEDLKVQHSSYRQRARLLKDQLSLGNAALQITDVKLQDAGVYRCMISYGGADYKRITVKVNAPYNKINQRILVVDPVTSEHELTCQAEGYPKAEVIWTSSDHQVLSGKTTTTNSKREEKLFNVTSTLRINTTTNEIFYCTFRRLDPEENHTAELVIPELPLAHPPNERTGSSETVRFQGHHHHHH
row,IC50,Structure (SMILES)
1,0.21 to 10 nM,"Cc1c(COc2cc(OCc3cncc(C#N)c3)c(CN3CCCC[C@H]3C(=O)O)cc2Cl)cccc1-c1cccc(OCCCN2CCC[C@@H](O)C2)c1 [Example 1018, (S)-1-(5-chloro-2-((5-cyanopyridin-3-yl)methoxy)-4-((3′-(3-((R)-3-hydroxypiperidin-1-yl)propoxy)-2-methyl-[1,1′-biphenyl]-3-yl)methoxy)benzyl)piperidine-2-carboxylic Acid]"
2,0.21 to 10 nM,"Cc1c(COc2cc(OCc3cncc(C#N)c3)c(CN3CCOC[C@H]3CO)cc2Cl)cccc1-c1cccc(OCCCN2CC[C@@H](O)C2)c1Cl [Example 2115, 5-((4-chloro-5-((2′-chloro-3′-(3-((R)-3-hydroxypyrrolidin-1-yl)propoxy)-2-methyl-[1,1′-biphenyl]-3-yl)methoxy)-2-(((R)-3-(hydroxymethyl)morpholino)methyl)phenoxy)methyl)nicotinonitrile]"
3,0.21 to 10 nM,"Cc1c(COc2cc(OCc3cncc(C#N)c3)c(CN[C@](C)(CO)C(=O)O)cc2Cl)cccc1-c1cccc(OCCCN2C[C@H](O)C[C@H]2C(N)=O)c1Cl [Example 1086, (R)-2-((4-((3′-(3-((2S,4R)-2-carbamoyl-4-hydroxypyrrolidin-1-yl)propoxy)-2′-chloro-2-methyl-[1,1′-biphenyl]-3-yl)methoxy)-5-chloro-2-((5-cyanopyridin-3-yl)methoxy)benzyl)amino)-3-hydroxy-2-methylpropanoic Acid]"
4,0.21 to 10 nM,"Cc1c(COc2cc(OCc3cncc(C#N)c3)c(CN3CCCC[C@H]3C(=O)O)cc2Cl)cccc1-c1cccc(OCCCN2CCCC(CO)C2)c1C (stereo partly drawn) [Example 2206, (2S)-1-(5-chloro-2-((5-cyanopyridin-3-yl)methoxy)-4-((3′-(3-(3-(hydroxymethyl)piperidin-1-yl)propoxy)-2,2′-dimethylbiphenyl-3-yl)methoxy)benzyl)piperidine-2-carboxylic Acid]"
5,0.21 to 10 nM,"Cc1c(COc2cc(OCc3cncc(S(C)(=O)=O)c3)c(CN3CCCC[C@H]3C(=O)O)cc2Cl)cccc1-c1cccc(OCCCN2CC[C@@H](O)C2)c1 [Example 1022, (S)-1-(5-chloro-4-((3′-(3-((R)-3-hydroxypyrrolidin-1-yl)propoxy)-2-methyl-[1,1′-biphenyl]-3-yl)methoxy)-2-((5-(methylsulfonyl)pyridin-3-yl)methoxy)benzyl)piperidine-2-carboxylic Acid]"
6,0.21 to 10 nM,"N#Cc1cncc(COc2cc(OCc3cccc(-c4cccc(OCCCN5CC[C@@H](O)C5)c4Cl)c3Cl)c(Cl)cc2CNC[C@H](O)CO)c1 [Example 2034, 5-((4-chloro-5-((2,2′-dichloro-3′-(3-((R)-3-hydroxypyrrolidin-1-yl)propoxy)-[1,1′-biphenyl]-3-yl)methoxy)-2-((((S)-2,3-dihydroxypropyl)amino)methyl)phenoxy)methyl)nicotinonitrile]"
7,0.21 to 10 nM,"Cc1c(COc2cc(OCc3cncc(C#N)c3)c(CO)cc2Cl)cccc1-c1cccc(OCCCN2CC[C@@H](O)C2)c1Cl [Example 2002, (R)-5-((4-chloro-5-((2′-chloro-3′-(3-(3-hydroxypyrrolidin-1-yl)propoxy)-2-methyl-[1,1′-biphenyl]-3-yl)methoxy)-2-(hydroxymethyl)phenoxy)methyl)nicotinonitrile]"
8,100 to 2000 nM,"Cc1c(COc2cc(OCc3cncc(C#N)c3)c(CN3C[C@H](O)C[C@H]3C(=O)O)cc2Cl)cccc1-c1cccc(C(=O)N(C)C)c1C [Example 4032, (2S,4R)-1-(5-chloro-2-((5-cyanopyridin-3-yl)methoxy)-4-((3′-(dimethylcarbamoyl)-2,2′-dimethyl-[1,1′-biphenyl]-3-yl)methoxy)benzyl)-4-hydroxypyrrolidine-2-carboxylic Acid]"
9,0.21 to 10 nM,"Cc1c(COc2cc(OCc3cncc(C#N)c3)c(CN[C@](C)(CO)C(=O)O)cc2Cl)cccc1-c1ccc2c(c1C)OCCO2 [Example 3042, (2R)-2-((5-chloro-2-((5-cyanopyridin-3-yl)methoxy)-4-((2-methyl-3-(5-methyl-2,3-dihydrobenzo[b][1,4]dioxin-6-yl)benzyl)oxy)benzyl)amino)-3-hydroxy-2-methylpropanoic Acid]"
10,0.21 to 10 nM,"Cc1c(COc2cc(OCc3cncc(C#N)c3)c(CN(C)C(C)(CO)CO)cc2Cl)cccc1-c1cccc(OCCCN2CCC(F)(F)C2)c1C [Example 4114, 5-((4-chloro-5-((3′-(3-(3,3-difluoropyrrolidin-1-yl)propoxy)-2,2′-dimethyl-[1,1′-biphenyl]-3-yl)methoxy)-2-(((1,3-dihydroxy-2-methylpropan-2-yl)(methyl)amino)methyl)phenoxy)methyl)nicotinonitrile]"
11,0.21 to 10 nM,"Cc1c(COc2cc(OCc3cncc(C#N)c3)c(CNC(CO)CO)cc2Cl)cccc1-c1cccc(C(=O)NCCN2CCS(=O)(=O)CC2)c1C [Example 4005, 3′-((2-chloro-5-((5-cyanopyridin-3-yl)methoxy)-4-(((1,3-dihydroxypropan-2-yl)amino)methyl)phenoxy)methyl)-N-(2-(1,1-dioxidothiomorpholino)ethyl)-2,2′-dimethyl-[1,1′-biphenyl]-3-carboxamide]"
12,10 to 100 nM,"Cc1c(COc2cc(OCc3cncc(S(C)(=O)=O)c3)c(CN3CCCC[C@H]3C(=O)O)cc2Cl)cccc1-c1cccc(OCCCN2CC[C@@H](O)C2)c1Cl [Example 1513, (S)-1-(5-chloro-4-((2′-chloro-3′-(3-((R)-3-hydroxypyrrolidin-1-yl)propoxy)-2-methyl-[1,1′-biphenyl]-3-yl)methoxy)-2-((5-(methylsulfonyl)pyridin-3-yl)methoxy)benzyl)piperidine-2-carboxylic acid]"
13,0.21 to 10 nM,"Cc1c(COc2cc(OCc3cncc(C#N)c3)c(CNC(C)(CO)CO)cc2Cl)cccc1-c1cccc(OCCCNC(=O)Cc2ccccn2)c1Cl [Example 2089, N-(3-((2-chloro-3′-((2-chloro-5-((5-cyanopyridin-3-yl)methoxy)-4-(((1,3-dihydroxy-2-methylpropan-2-yl)amino)methyl)phenoxy)methyl)-2′-methyl-[1,1′-biphenyl]-3-yl)oxy)propyl)-2-(pyridin-2-yl)acetamide]"
14,0.21 to 10 nM,"Cc1c(COc2cc(OCc3cncc(C#N)c3)c(CN3CCCC[C@H]3C(=O)O)cc2Cl)cccc1-c1cccc(OCCCN2CCC(O)C2)c1C (stereo in doubt) [Example 3006, (S)-1-(5-chloro-2-((5-cyanopyridin-3-yl)methoxy)-4-((3′-(3-((R)-3-hydroxypyrrolidin-1-yl)propoxy)-2,2′-dimethyl-[1,1′-biphenyl]-3-yl)methoxy)benzyl)piperidine-2-carboxylic Acid]"
15,0.21 to 10 nM,"Cc1c(COc2cc(OCc3cncc(S(C)(=O)=O)c3)c(CN[C@](C)(CO)C(=O)O)cc2Cl)cccc1-c1cccc(OCCCN2CC[C@@H](C(=O)O)C2)c1C [Example 1083, (R)-1-(3-((3′-((4-((((R)-2-carboxy-1-hydroxypropan-2-yl)amino)methyl)-2-chloro-5-((5-(methylsulfonyl)pyridin-3-yl)methoxy)phenoxy)methyl)-2,2′-dimethyl-[1,1′-biphenyl]-3-yl)oxy)propyl)pyrrolidine-3-carboxylic Acid]"
16,0.21 to 10 nM,"Cc1c(COc2cc(OCc3cccc(C#N)c3)c(CN3CCCC[C@H]3C(=O)O)cc2Cl)cccc1-c1cccc(OCCCN2[C@@H]3CC[C@H]2COC3)c1C [Example 3055, (S)-1-(4-((3′-(3-((1R,5S)-3-oxa-8-azabicyclo[3.2.1]octan-8-yl)propoxy)-2,2′-dimethyl-[1,1′-biphenyl]-3-yl)methoxy)-5-chloro-2-((3-cyanobenzyl)oxy)benzyl)piperidine-2-carboxylic Acid]"
17,0.21 to 10 nM,"Cc1c(COc2cc(OCc3cncc(C#N)c3)c(CN3CCN(CCO)CC3)cc2Cl)cccc1-c1cccc(OCCCN2CCN(CCO)CC2)c1C [Example 2258, 5-((4-chloro-2-((4-(2-hydroxyethyl)piperazin-1-yl)methyl)-5-((3′-(3-(4-(2-hydroxyethyl)piperazin-1-yl)propoxy)-2,2′-dimethylbiphenyl-3-yl)methoxy)phenoxy)methyl)nicotinonitrile]"
18,0.21 to 10 nM,"CC(=O)N[C@@H]1CCN(CCCOc2cccc(-c3cccc(COc4cc(OCc5cncc(C#N)c5)c(CN[C@](C)(CO)C(=O)O)cc4Cl)c3C)c2Cl)C1 [Example 2022, (R)-2-((4-((3′-(3-((R)-3-acetamidopyrrolidin-1-yl)propoxy)-2′-chloro-2-methyl-[1,1′-biphenyl]-3-yl)methoxy)-5-chloro-2-((5-cyanopyridin-3-yl)methoxy)benzyl)amino)-3-hydroxy-2-methylpropanoic Acid]"
19,10 to 100 nM,"Cc1c(COc2cc(OCc3cncc(C#N)c3)c(CN3CCCC[C@H]3C(=O)O)cc2Cl)cccc1-c1ccc2c(c1)OC(CCN1CC[C@H](O)C1)CO2 (mixture of isomers) [Example 1503, (2S)-1-(5-chloro-2-((5-cyanopyridin-3-yl)methoxy)-4-((3-(3-(2-((S)-3-hydroxypyrrolidin-1-yl)ethyl)-2,3-dihydrobenzo[b][1,4]dioxin-6-yl)-2-methylbenzyl)oxy)benzyl)piperidine-2-carboxylic acid]"
20,0.21 to 10 nM,"Cc1c(COc2cc(OCc3cncc(C#N)c3)c(CN[C@](C)(CO)C(=O)O)cc2Cl)cccc1-c1cccc(OCCCN2CCC(O)(C(=O)O)CC2)c1C [Example 1037, (R)-1-(3-((3′-((4-(((2-carboxy-1-hydroxypropan-2-yl)amino)methyl)-2-chloro-5-((5-cyanopyridin-3-yl)methoxy)phenoxy)methyl)-2,2′-dimethyl-[1,1′-biphenyl]-3-yl)oxy)propyl)-4-hydroxypiperidine-4-carboxylic Acid]"
21,100 to 2000 nM,"CNC(=O)c1cccc(-c2cccc(COc3cc(OCc4cc(F)cc(F)c4)c(CN4CCCC[C@H]4C(=O)O)cc3Cl)c2C)c1C [Example 4023, (S)-1-(5-chloro-2-((3,5-difluorobenzyl)oxy)-4-((2,2′-dimethyl-3′-(methylcarbamoyl)-[1,1′-biphenyl]-3-yl)methoxy)benzyl)piperidine-2-carboxylic Acid]"
